One series concerns P. falciparum strains. The arrangement: method as in PMID 24900261, PMID 26317851, PMID 28513586. The note with it: multiple stages of the malaria parasite; cited from earlier work.
Series [1] concerns P. falciparum 3D7. Description: Antimalarial assay against P. falciparum 3D7 (48 h growth, DNA fluorescent dye). It is filed as cell-based, Plasmodium falciparum. The note with it: for IC50: Plasmodium falciparum. On the procedure:
Plasmodium falciparum strain 3D7 was cultured in complete medium (RPMI-1640 supplemented with 10% Albumax II) using O Rh^+ red blood cells in a microaerobic environment (5% CO2, 5% O2, 90% N2). IC50 assay plates were prepared using fourfold serially diluted test compounds in complete medium to a final volume of 50 μL. Then, 50 μL of parasite inoculum at 2% parasitemia ring stage and 1% hematocrit was added to each well and incubated for 48 h in a microaerobic environment. The assay was terminated by freezing at -20 °C before growth measurement. Parasite growth was measured adding 100 μL of lysis buffer supplemented with 1× DNA fluorescent dye (UltraPower, […], Tokyo, Japan), and the fluorescent signal was measured at 495/530 nm. The IC50 value was calculated by GraphPad Prism 9.0 software (La Jolla, California, USA) using the dose-response (four-parameter) function. Artemisinin at 1 μM and complete medium were used as positive and negative controls, respectively.

The subject of a further series is MCF-7 cells. Description: Antiproliferative assay against MCF-7 (MTT, 72 h). The note with it: for IC50: Homo sapiens, MCF7, MCF-7 cells, 72 h, MTT; for cytotoxicity against MCF-7 cells, in words: compared with the parent compound. The format is cell-based, Human. On the procedure:
Human breast cancer cells (MCF-7) purchased from ATCC were seeded at 2 × 10^3 cells/well on a 96-well black flat-bottom plate and were cultured in high-glucose DMEM (Dulbecco’s modified Eagle medium) supplemented with 10% fetal bovine serum and 1% penicillin/streptomycin. The culture was incubated at 37 °C, 5% CO2 for 24 h. After the incubation period, the test compounds were added into the cell plate at serially diluted concentrations (20, 2, 0.2, 0.02, 0.002, and 0.0002 μM), and the culture was incubated for 72 h at 37 °C, 5% CO2. After the 72 h incubation, the cultured media containing compounds were removed, and the serum-free media containing MTT were added to the same well with additional incubation for 3 h at 37 °C, 5% CO2. After 3 h incubation, the serum-free media containing MTT were removed, and DMSO was added into the same well; the resulting solution was measured for its absorbance at 570 nm using a Multimode Microplate Reader (ENVISION) (PerkinElmer, USA). The IC50 value was calculated using GraphPad. Doxorubicin at 10 µM was used as a positive control in this assay.

The subject of series [2] is P. falciparum 3D7. More on the design: method as in doi:10.3390/M1358. The note with it: earlier report of the group; read-out: IC50 against P. falciparum 3D7; cited from earlier work.
Series [3] deals with human ovarian cancer (SKOV3). More on the design: method as in earlier work. The note with it: patent; cited from earlier work.
[4] abbreviates: Table 2, blood-stage P. falciparum 3D7, various amino-acid linkers, read-out: IC50 (µM) 3D7 ± SD.
The mark [5] stands for this setting: Table 3, blood-stage P. falciparum 3D7, various amine side chains, read-out: IC50 (µM) 3D7 ± SD.
Setting [6] is: P. falciparum 3D7, read-out: antimalarial activity against 3D7.

Read-outs that look alike come from different tables or passages of the source.

On to `COc1ccccc1CNC(=O)CCn1c(=O)[nH]c2ccsc2c1=O` [MMV019066], for which the “parasite growth inhibitory activity” value in the series with P. falciparum strains was below 1 µM.
In the case of `COc1cccc(NC(=O)[C@H](C)n2c(=O)[nH]c3ccccc3c2=O)c1` [Compound 6], the IC50 in the series on P. falciparum 3D7 [1] (setting [4]) is above 10 µM.
As to `CC(C)[C@@H](C(=O)Nc1cccc(F)c1)n1c(=O)[nH]c2ccccc2c1=O` [Compound 21], in the series on P. falciparum 3D7 [1] (P. falciparum 3D7), the “antimalarial activity against 3D7, in words” value (shortened to “antimalarial activity”) was “excellent activity”. Also, the IC50 in the series on P. falciparum 3D7 [1] (setting [5]) was 0.036 ± 0.005 µM; in the series on MCF-7 cells it was above 20 µM.
As for `CCC[C@@H](C(=O)Nc1cccc(OC)c1)n1c(=O)[nH]c2ccccc2c1=O` [Compound 9], the IC50 with P. falciparum 3D7 [1] (setting [6]) was 1 to 3 µM; in the series with P. falciparum 3D7 [1] (setting [4]), 1.11 ± 0.1 µM.
Consider `COc1ccccc1CNC(=O)CCn1c(=O)[nH]c2ccccc2c1=O` [MMV665916], for which the “parasite growth inhibitory activity” value in the series with P. falciparum strains was below 1 µM.
As for `COc1cccc(NCCn2c(=O)[nH]c3ccccc3c2=O)c1` [Compound 4], the IC50 with P. falciparum 3D7 [1] (setting [4]) is above 10 µM.
Turning to `CC(C)[C@@H](C(=O)Nc1ccc(F)c(F)c1)n1c(=O)[nH]c2ccccc2c1=O` [Compound 23], the IC50 with P. falciparum 3D7 [1] (setting [5]) came out at 0.038 ± 0.009 µM. Also, in the series on MCF-7 cells, the IC50 was 9.74 µM and the “cytotoxicity against MCF-7 cells, in words” value was “slightly higher cytotoxicity”.
`CC(C)[C@@H](C(=O)Nc1ccccc1)n1c(=O)[nH]c2ccccc2c1=O` [Compound 18]: the “antimalarial activity” value in the series with P. falciparum 3D7 [1] (P. falciparum 3D7) was “dramatic loss in the antimalarial activity”. The IC50 in the series with P. falciparum 3D7 [1] (setting [5]) is 0.607 ± 0.03 µM; with MCF-7 cells it was above 20 µM.
In the case of `COc1cccc(NC(=O)[C@H](C(C)C)n2c(=O)[nH]c3ccccc3c2=O)c1` [Compound 2], the IC50 with P. falciparum 3D7 [1] (setting [4]) is 0.219 ± 0.024 µM; in the series on MCF-7 cells, 17.5 µM; in the series on P. falciparum 3D7 [2], around 200 nM.
Consider `CC(C)[C@@H](C(=O)Nc1ccc(F)c(Cl)c1)n1c(=O)[nH]c2ccccc2c1=O` [Compound 27], for which the IC50 was 0.059 ± 0.012 µM with P. falciparum 3D7 [1] (setting [5]) and above 20 µM in the series on MCF-7 cells.
Take `CC(C)[C@@H](C(=O)Nc1ccc(Cl)cc1)n1c(=O)[nH]c2ccccc2c1=O` [Compound 25]: in the series with P. falciparum 3D7 [1] (P. falciparum 3D7), the “antimalarial activity” value is recorded as “good antimalarial activity”. The IC50 is 0.711 ± 0.038 µM with P. falciparum 3D7 [1] (setting [5]) and 10.5 µM with MCF-7 cells.
As for `CC(C)[C@@H](C(=O)Nc1ccc(F)cc1)n1c(=O)[nH]c2ccccc2c1=O` [Compound 22], the “antimalarial activity” value in the series with P. falciparum 3D7 [1] (P. falciparum 3D7) was “good antimalarial activity”. Also, the IC50 is 0.36 ± 0.034 µM in the series on P. falciparum 3D7 [1] (setting [5]) and above 20 µM in the series on MCF-7 cells.
On to `COc1cccc(NC(=O)Cn2c(=O)[nH]c3ccccc3c2=O)c1` [Compound 5], for which, in the series with P. falciparum 3D7 [1] (setting [4]), the IC50 was above 10 µM.
For the compound `COc1cccc(NC(=O)[C@H](CC(C)C)n2c(=O)[nH]c3ccccc3c2=O)c1` [Compound 7], the IC50 is 1 to 3 µM in the series with P. falciparum 3D7 [1] (setting [6]) and 3.25 ± 0.21 µM in the series on P. falciparum 3D7 [1] (setting [4]).
Consider `CC(C)[C@@H](C(=O)Nc1cccc(Cl)c1)n1c(=O)[nH]c2ccccc2c1=O` [Compound 24], for which the “antimalarial activity” value in the series on P. falciparum 3D7 [1] (P. falciparum 3D7) is “excellent activity”. In addition, the IC50 is 0.022 ± 0.005 µM in the series on P. falciparum 3D7 [1] (setting [5]) and above 20 µM in the series on MCF-7 cells.
For `CC(C)[C@@H](C(=O)Nc1cccnc1)n1c(=O)[nH]c2ccccc2c1=O` [Compound 19], in the series on P. falciparum 3D7 [1] (P. falciparum 3D7), the “antimalarial activity” value is given as “decrease in antimalarial activity”. Moreover, the figures for the IC50 in the series on P. falciparum 3D7 [1] (setting [5]) and with MCF-7 cells were 2.89 ± 0.401 µM and above 20 µM, respectively.
On to `CCOC(=O)c1sc(NC(=O)[C@H](C(C)C)n2c(=O)[nH]c3ccccc3c2=O)nc1OC` [Compound 3], for which the “cytotoxicity against SKOV3, in words” value in series [3] was “highly potent cytotoxicity”.
With `CC(C)[C@@H](C(=O)Nc1ccc(Cl)c(Cl)c1)n1c(=O)[nH]c2ccccc2c1=O` [Compound 26], the “antimalarial activity” value in the series with P. falciparum 3D7 [1] (P. falciparum 3D7) was “less potent antimalarial”. Moreover, in the series on P. falciparum 3D7 [1] (setting [5]), the IC50 was 0.406 ± 0.034 µM. In the series on MCF-7 cells, the IC50 is above 20 µM and the “cytotoxicity against MCF-7 cells, in words” value is “slightly higher cytotoxicity”.
Take `CC(C)[C@@H](C(=O)NCc1ccccc1)n1c(=O)[nH]c2ccccc2c1=O` [Compound 28]: the “antimalarial activity” value with P. falciparum 3D7 [1] (P. falciparum 3D7) was “dramatic loss in the antimalarial activity”. In addition, the figures for the IC50 with P. falciparum 3D7 [1] (setting [5]) and with MCF-7 cells were above 10 µM and above 20 µM, respectively.
Regarding `CC(C)[C@@H](C(=O)Nc1ccncc1)n1c(=O)[nH]c2ccccc2c1=O` [Compound 20], the “antimalarial activity” value in the series with P. falciparum 3D7 [1] (P. falciparum 3D7) is recorded as “decrease in antimalarial activity”. Moreover, the IC50 in the series with P. falciparum 3D7 [1] (setting [5]) was 1.41 ± 0.115 µM; in the series with MCF-7 cells it was above 20 µM.
For the compound `COc1ccc(NC(=O)[C@H](C(C)C)n2c(=O)[nH]c3ccccc3c2=O)cc1` [Compound 29], the “antimalarial activity” value in the series with P. falciparum 3D7 [1] (P. falciparum 3D7) is “dramatic loss in the antimalarial activity”. The IC50 is above 10 µM in the series with P. falciparum 3D7 [1] (setting [5]) and above 20 µM in the series on MCF-7 cells.
Take `CCC(C(=O)Nc1cccc(OC)c1)n1c(=O)[nH]c2ccccc2c1=O` (stereo not drawn) [Compound 8]: in the series with P. falciparum 3D7 [1] (P. falciparum 3D7), the “antimalarial activity” value is recorded as “potent sub-micromolar activity”. For the same compound, the IC50 in the series with P. falciparum 3D7 [1] (setting [4]) was found to be 0.586 ± 0.032 µM.

Source of the values: article PMC10096129, “Rational Design and Lead Optimisation of Potent Antimalarial Quinazolinediones and Their Cytotoxicity against MCF-7” (Molecules, 2023).
